Measured values as given in the NIST ThermoML archive (doi:10.1016/j.jct.2008.11.003).

What was measured:
[1] = 101.33 kPa, Liquid; for mass density: Vibrating tube method; for viscosity: Cone and plate viscometry
[2] = refractive index (Na D-line) (dimensionless); conditions: 101.33 kPa, Liquid, Standard Abbe refractometry

CC(=O)[O-].OCC[NH2+]CCO [2,2'-azanediylbis(ethanol) acetate]
Conditions	mass density [kg/m3]	refractive index	viscosity [mPa·s]
[1], 293.15 K	1173.85	–	–
[1], 298.2 K	–	–	566.89
[1], 303.15 K	1166.39	–	–
[1], 303.2 K	–	–	376.59
[1], 308.2 K	–	–	260.02
[1], 313.15 K	1160.12	–	–
[1], 313.2 K	–	–	183.97
[1], 318.2 K	–	–	136.06
[1], 323.15 K	1153.96	–	–
[1], 323.2 K	–	–	101.06
[1], 328.2 K	–	–	78.35
[1], 333.15 K	1147.64	–	–
[1], 333.2 K	–	–	60.25
[1], 338.2 K	–	–	48.79
[1], 343.15 K	1141.22	–	–
[1], 343.2 K	–	–	38.65
[1], 348.2 K	–	–	31.51
[1], 353.15 K	1134.66	–	–
[1], 363.15 K	1127.97	–	–
[2], 293.15 K	–	1.43431	–
[2], 298.15 K	–	1.43338	–
[2], 303.15 K	–	1.43238	–
[2], 308.15 K	–	1.43137	–
[2], 313.15 K	–	1.43029	–
[2], 318.15 K	–	1.42916	–
[2], 323.15 K	–	1.42798	–
[2], 328.15 K	–	1.42673	–
[2], 333.15 K	–	1.42547	–

CC(=O)[O-].[NH3+]CCO [2-hydroxyethylammonium acetate]
Conditions	mass density [kg/m3]	refractive index	viscosity [mPa·s]
[1], 293.15 K	1148.66	–	–
[1], 298.2 K	–	–	313.15
[1], 303.15 K	1143.39	–	–
[1], 303.2 K	–	–	224.68
[1], 308.2 K	–	–	162.91
[1], 313.15 K	1138.02	–	–
[1], 313.2 K	–	–	120.26
[1], 318.2 K	–	–	92.56
[1], 323.15 K	1132.52	–	–
[1], 323.2 K	–	–	70.68
[1], 328.2 K	–	–	56.56
[1], 333.15 K	1126.94	–	–
[1], 333.2 K	–	–	43.91
[1], 338.2 K	–	–	34.98
[1], 343.15 K	1121.26	–	–
[1], 343.2 K	–	–	29.04
[1], 348.2 K	–	–	24.05
[1], 353.15 K	1115.47	–	–
[1], 363.15 K	1109.55	–	–
[2], 293.15 K	–	1.43775	–
[2], 298.15 K	–	1.43682	–
[2], 303.15 K	–	1.43593	–
[2], 308.15 K	–	1.4351	–
[2], 313.15 K	–	1.43428	–
[2], 318.15 K	–	1.43356	–
[2], 323.15 K	–	1.43287	–
[2], 328.15 K	–	1.43223	–
[2], 333.15 K	–	1.43164	–

CC(O)C(=O)[O-].[NH3+]CCO (stereo not given) [2-hydroxyethylammonium lactate]
Conditions	mass density [kg/m3]	refractive index	viscosity [mPa·s]
[1], 293.15 K	1204.52	–	–
[1], 298.2 K	–	–	254.25
[1], 303.15 K	1197.84	–	–
[1], 303.2 K	–	–	181.45
[1], 308.2 K	–	–	133.32
[1], 313.15 K	1191.86	–	–
[1], 313.2 K	–	–	100.02
[1], 318.2 K	–	–	76.88
[1], 323.15 K	1185.78	–	–
[1], 323.2 K	–	–	60.18
[1], 328.2 K	–	–	48.12
[1], 333.15 K	1179.64	–	–
[1], 333.2 K	–	–	38.12
[1], 338.2 K	–	–	31.02
[1], 343.15 K	1173.45	–	–
[1], 343.2 K	–	–	24.98
[1], 348.2 K	–	–	21.26
[1], 353.15 K	1167.19	–	–
[1], 363.15 K	1160.86	–	–
[2], 293.15 K	–	1.43858	–
[2], 298.15 K	–	1.43758	–
[2], 303.15 K	–	1.43658	–
[2], 308.15 K	–	1.43557	–
[2], 313.15 K	–	1.43455	–
[2], 318.15 K	–	1.43354	–
[2], 323.15 K	–	1.43252	–
[2], 328.15 K	–	1.43148	–
[2], 333.15 K	–	1.43043	–

CC(=O)[O-].C[NH+](CCO)CCO [N-methyldiethanolammonium acetate]
Conditions	mass density [kg/m3]	refractive index	viscosity [mPa·s]
[1], 293.15 K	1141.42	–	–
[1], 298.2 K	–	–	198.91
[1], 303.15 K	1132.76	–	–
[1], 303.2 K	–	–	144.69
[1], 308.2 K	–	–	108.33
[1], 313.15 K	1125.85	–	–
[1], 313.2 K	–	–	83.56
[1], 318.2 K	–	–	64.12
[1], 323.15 K	1118.75	–	–
[1], 323.2 K	–	–	50.96
[1], 328.2 K	–	–	40.45
[1], 333.15 K	1111.46	–	–
[1], 333.2 K	–	–	32.15
[1], 338.2 K	–	–	25.98
[1], 343.15 K	1103.98	–	–
[1], 343.2 K	–	–	22.32
[1], 348.2 K	–	–	18.45
[1], 353.15 K	1096.28	–	–
[1], 363.15 K	1088.36	–	–
[2], 293.15 K	–	1.43302	–
[2], 298.15 K	–	1.43215	–
[2], 303.15 K	–	1.43122	–
[2], 308.15 K	–	1.43023	–
[2], 313.15 K	–	1.42922	–
[2], 318.15 K	–	1.42813	–
[2], 323.15 K	–	1.42702	–
[2], 328.15 K	–	1.42583	–
[2], 333.15 K	–	1.42462	–

CC(O)C(=O)O.OCCNCCO [diethanolamine lactate]
Conditions	mass density [kg/m3]	refractive index	viscosity [mPa·s]
[1], 293.15 K	1206.34	–	–
[1], 298.2 K	–	–	288.56
[1], 303.15 K	1198.77	–	–
[1], 303.2 K	–	–	204.15
[1], 308.2 K	–	–	148.54
[1], 313.15 K	1192.47	–	–
[1], 313.2 K	–	–	110.25
[1], 318.2 K	–	–	84.34
[1], 323.15 K	1186.14	–	–
[1], 323.2 K	–	–	65.45
[1], 328.2 K	–	–	51.78
[1], 333.15 K	1179.73	–	–
[1], 333.2 K	–	–	42.15
[1], 338.2 K	–	–	33.45
[1], 343.15 K	1173.25	–	–
[1], 343.2 K	–	–	27.15
[1], 348.2 K	–	–	22.45
[1], 353.15 K	1166.69	–	–
[1], 363.15 K	1160.03	–	–
[2], 293.15 K	–	1.44156	–
[2], 298.15 K	–	1.44142	–
[2], 303.15 K	–	1.44109	–
[2], 308.15 K	–	1.44056	–
[2], 313.15 K	–	1.43983	–
[2], 318.15 K	–	1.43891	–
[2], 323.15 K	–	1.43776	–
[2], 328.15 K	–	1.43642	–
[2], 333.15 K	–	1.43489	–
